In article PMC8957246, “Synthesis and diverse biological activity profile of triethylammonium isatin-3-hydrazones” (ADMET & DMPK, 2022):
In brackets after ≈: the same amount, converted by molar mass. Structures can show the parent of a compound that is named as a salt. Marks after values point to notes of the source that are not given here.

What was measured:
[1] = tested on: platelets (ADP-induced aggregation); assay: Platelet aggregation (Born method), ADP-induced; format: cell-based; details: Homo sapiens, ADP 20 μg/mL, final concentration 2×10^–3 mol/L, median (25-75 percentiles), read-out: Platelets aggregation, % of control, ADP
Procedure: (§1) The in vitro experiments were performed using the blood of healthy male donors aged 18-24 years (total 54 donors). The study was approved by the Ethics Committee of Federal State Budgetary Educational Institution of Higher Education at the Bashkir State Medical University of the Ministry of Health of Russian Federation (No.2 dated 17.10.2012). Informed consent was obtained from all participants before blood sampling. The blood was collected from the cubital vein using the system of vacuum blood collection BD Vacutainer® (Becton, Dickinson and Company, USA). A 3.8 % sodium citrate solution in a 9:1 ratio was used as a venous blood stabiliser. The study of the effect on platelet aggregation was performed using the Born method using the aggregometer «AT-02» (SPC Medtech, Russia). The assessment of antiplatelet activity of the studied compounds and reference preparations was started with the final concentration of 2×10^–3 mol/L. Adenosine diphosphate (ADP; 20 μg/mL) and collagen (5 mg/mL) manufactured by Tehnologia-Standart Company, Russia, were used as inducers of aggregation. The study on the anticoagulant activity was performed by standard recognised clotting tests using the optical two-channel automatic analyser of blood coagulation Solar CGL 2110 (CJSC SOLAR, Belarus). The following parameters were studied: activated partial thromboplastin time (APTT), prothrombin time (PT) and fibrinogen concentrations according to the Clauss method. The determination of anticoagulant activity of the studied compounds and reference preparation was performed in a concentration of 5×10^–4 g/mL using the reagents manufactured by Tehnologia-Standart Company (Barnaul, Russia). The results of the study were processed using the statistical package Statistica 10.0 (StatSoft Inc, USA). The Shapiro–Wilk’s test was used to check the normality of actual data distribution. The form of distribution of the data obtained differed from the normal one; therefore, non-parametric methods were used for further analysis. The data were presented as medians and 25 and 75 percentiles. Analysis of variance was conducted using Kruskal–Wallis test. A p value of 0.05 was considered statistically significant.

[2] = tested on: platelets (collagen-induced aggregation); assay: Platelet aggregation (Born method), collagen-induced; format: cell-based; details: Homo sapiens, collagen 5 mg/mL, final concentration 2×10^–3 mol/L, median (25-75 percentiles), read-out: Platelets aggregation, % of control, Collagen
Procedure: as §1

[3] = tested on: Pectobacterium carotovorum subsp. carotovorum MI; assay: Bactericidal activity, agar diffusion, P. carotovorum; format: cell-based
Description: (§2) Plant pathogenic bacterial strains Micrococcus luteus B-109, Pectobacterium atrosepticum 1043, Pectobacterium carotovorum subsp. carotovorum MI, Pseudomonas fluorescens EL-2.1, and Xanthomonas campestris B-610 and fungal strain Fusarium oxysporum IBPPM 543 were obtained from the specialized scientific culture collection of IBPPM RAS (WFCC no. 975, WDCM no. 1021) (CM IBPPM). Pathogenic fungus Phytophthora cactorum VKM F-985 provided by the All-Russian Collection of Microorganisms (VKM) and deposited at A.E. Favorsky Irkutsk Institute of Chemistry, SB RAS, was also used as test organism. Bacteria M. luteus, P. carotovorum subsp. carotovorum, P. atrosepticum, and Ps. fluorescens were grown in meat-peptone medium (BP), and X. campestris was grown in the medium with glucose, yeast extract, and calcium carbonate (GYCa). Solid media contained Bacto agar (18 g/L); pH was adjusted to 7.2-7.4. All bacterial cultures were grown at 28°C. The mycelial cultures of F. oxysporum and P. cactorum were grown on a glucose-peptone-yeast (GPY) nutrient medium at 27 °C. For inoculum preparation, both fungal strains were initially grown on the agar GPY in Petri dishes and then transferred into the seed medium by punching out 5 mm of the agar plate culture with a self-designed cutter.
(§3) Antibacterial and antifungal activities of the compounds were explored using the agar diffusion method and the technique of a phytopathogen radial growth inhibition. Method of diffusion in agar (measuring the diameter of growth inhibition zones) was used for determining the bactericidal activity. The 6-mm wells were made in ager medium (GYCa for Xanthomonas campestris or BP for other bacteria). Bacterial suspensions were distributed over the agar surface, and the tested compound's solution (150 μl) was added to each well. The width of growth inhibition zones around the wells was determined after incubation for 36-40 h.
(§4) The solutions of tested compounds were prepared with a concentration of 2 mmol/l (stock solution). For comparison, test compounds were also commonly applied disinfecting agents and antibiotics.

[4] = tested on: Pectobacterium atrosepticum 1043; assay: Bactericidal activity, agar diffusion, P. atrosepticum; format: cell-based
Description: as §2, §3, §4

Micrococcus luteus B-109 = assay: Bactericidal activity, agar diffusion, M. luteus; format: cell-based
Description: as §2, §3, §4

[5] = tested on: Pseudomonas fluorescens EL-2.1; assay: Bactericidal activity, agar diffusion, Ps. fluorescens; format: cell-based
Description: as §2, §3, §4

[6] = tested on: Xanthomonas campestris B-610; assay: Bactericidal activity, agar diffusion, X. campestris; format: cell-based
Description: as §2, §3, §4

[7] = tested on: Phytophthora cactorum VKM F-985; assay: Fungicidal activity, radial growth inhibition, P. cactorum; format: cell-based; details: for Inhibition value, I (%): C 10 μg/mL
Description: as §2
(§5) For the fungicidal activity analysis, radial growth (colony diameters) of the fungi on a solid medium in the absence and in the presence of the compounds 3a,c-g solutions at various concentrations were compared. The method consisted of the following: sterile, melted and then cooled to about 60°C GPY agar medium (20.0 ml) was mixed with the precisely measured volumes of the solutions under question, and poured into a sterile Petri dish (90 mm i.d.). After solidification of GPY agar, the media were inoculated by the fungus using 10-day-old cultures of F. oxysporum or P. cactorum. The inoculation was done by transferring a 5-mm (i.d.) GPY-agar block covered with mycelium to the center of the Petri dish followed by incubation in a thermostat at 27°C. The fungicidal effect was scored by the size of mycelium colony on a Petri dish compared to the control without fungicidal admixtures to GPY agar. Each treatment was performed in at least four replicates in two independent experiments. The observation period ended when the control Petri dish was filled with mycelium (usually after 12 days). The inhibition of the phytopathogen colony growth by the compounds 3a,c-g or fludioxonil solutions was calculated as a percentage by which the mycelium radial propagation was decreased compared to the unaffected control, the latter was taken as 100 % of growth (or zero percent of inhibition). The EC50 value was calculated as the compound concentration at which the radial growth of the fungus colony was decreased by 50 % relative to the non-fungicidal control, according to the formula EC50 = 50C/I based on the approach developed e.g., in [34, 35].
as §4

[8] = tested on: Fusarium oxysporum IBPPM 543; assay: Fungicidal activity, radial growth inhibition, F. oxysporum; format: cell-based; details: for Inhibition value, I (%): C 10 μg/mL
Description: as §2, §5, §4

[9] = tested on: methicillin-resistant strains of S. aureus (MRSA-2); assay: Antimicrobial activity, serial dilution (MIC/MBC), MRSA-2; format: cell-based; details: Staphylococcus aureus
Procedure: (§6) The antimicrobial activity of the test compounds was determined by the serial dilution technique in Muller Hinton Broth 2 and in Sabouradu broth for fungi. The cultures used for testing included Gram-positive bacteria: Staphylococcus aureus ATCC 6538P FDA 209P, Bacillus cereus ATCC 10702 NCTC 8035, Enterococcus faecalis ATCC 29212; Gram-negative bacteria: Escherichia coli ATCC 25922, Pseudomonas aeruginosa ATCC 9027, and fungi: Trichophyton mentagrophytes var. gypseum 1773, and Candida albicans ATCC 10231; methicillin-resistant strains of S. aureus (MRSA) was obtained from hospital patients with chronic tonsillitis in the Republican Clinical Hospital (Kazan, Russia). The bacterial load was 3.0 × 10^5 cfu/ml. The fungi load was 2.0 × 10^3 cfu/ml. The results were recorded every 24 h for 5-7 days. Cultures were incubated at 37 °C. The experiment was repeated three times. […] The minimum inhibitory concentration (MIC) was defined as the minimum concentration of a compound that inhibits the growth of the corresponding test microorganism. The growth of bacteria, as well as the absence of the growth due to the bacteriostatic action of compounds, were recorded.
(§7) Synthesized compounds were further evaluated for antimicrobial activity against test microorganisms: Staphylococcus aureus ATCC 209p (Sa), Bacillus cereus ATCC 8035 (Bc), Escherichia coli CDC F-50 (Ec), Enterococcus faecalis (Ef), Pseudomonas aeruginosa ATCC 9027, Aspergillus niger BKMF-1119, Trichophyton mentagrophytes var. gypseum 1773, and Candida albicans 855-653 including methicillin-resistant strains of S. aureus (MRSA 1 and MRSA 2). The minimum inhibitory (MIC) and minimum bactericidal (MBC) concentrations of ammonium salts were determined against these pathogens (Table 1). Due to the lack of activity of compounds 3a-g against Gram-negative bacterial strains and some fungi, the corresponding data are not shown.

[10] = tested on: Staphylococcus aureus ATCC 6538P FDA 209P; assay: Antimicrobial activity, serial dilution (MIC/MBC), Sa; format: cell-based; details: Staphylococcus aureus
Procedure: as §6, §7

[11] = tested on: Bacillus cereus ATCC 10702 NCTC 8035; assay: Antimicrobial activity, serial dilution (MIC/MBC), Bc; format: cell-based; details: Bacillus cereus
Procedure: as §6, §7

[12] = tested on: methicillin-resistant strains of S. aureus (MRSA-1); assay: Antimicrobial activity, serial dilution (MIC/MBC), MRSA-1; format: cell-based; details: Staphylococcus aureus
Procedure: as §6, §7

[13] = tested on: Enterococcus faecalis ATCC 29212; assay: Antimicrobial activity, serial dilution (MIC/MBC), Ef; format: cell-based; details: ATCC29212
Procedure: as §6, §7

[14] = tested on: activated partial thromboplastin time (intrinsic coagulation pathway); assay: Anticoagulant activity, clotting test APTT; set-up: species or system human; details: concentration 5×10^–4 g/mL; median (25-75 percentiles)
Procedure: as §1

## CC[N+](CC)(CC)CC(=O)N/N=C1\C(=O)N(Cc2cc(C(C)(C)C)c(O)c(C(C)(C)C)c2)c2ccccc21 (as salt: bromide) [Compound 3a, 2-(2-(1-(3,5-Di-tert-butyl-4-hydroxybenzyl)-2-oxoindolin-3-ylidene)hydrazinyl)-N,N,N-triethyl-2-oxoethanammonium bromide]
other
  melting point: 212 °C

## CC[N+](CC)(CC)CC(=O)N/N=C1\C(=O)N(Cc2cc(C(C)(C)C)c(O)c(C(C)(C)C)c2)c2c(C)cccc21 (as salt: bromide) [Compound 3b, 2-(2-(1-(3,5-Di-tert-butyl-4-hydroxybenzyl)-7-methyl-2-oxoindolin-3-ylidene)hydrazinyl)-N,N,N-triethyl-2-oxoethanammonium bromide]
other
  melting point: 154 °C

## CCc1cccc2c1N(Cc1cc(C(C)(C)C)c(O)c(C(C)(C)C)c1)C(=O)/C2=N\NC(=O)C[N+](CC)(CC)CC (as salt: bromide) [Compound 3c, 2-(2-(1-(3,5-Di-tert-butyl-4-hydroxybenzyl)-7-ethyl-2-oxoindolin-3-ylidene)hydrazinyl)-N,N,N-triethyl-2-oxoethanammonium bromide]
other
  melting point: 163 °C

## CC[N+](CC)(CC)CC(=O)N/N=C1\C(=O)N(Cc2cc(C(C)(C)C)c(O)c(C(C)(C)C)c2)c2cccc(Br)c21 (as salt: bromide) [Compound 3e, 2-(2-(1-(3,5-Di-tert-butyl-4-hydroxybenzyl)-4-bromo-2-oxoindolin-3-ylidene)hydrazinyl)-N,N,N-triethyl-2-oxoethanammonium bromide]
other
  melting point: 194 °C

## CC(=O)Oc1ccccc1C(=O)O [Acetylsalicylic acid, reference compound]
[1]
  inhibition at 2000 µM: 13.7%
[2]
  inhibition at 2000 µM: 14.7%

## N=C(NCCCCCCNC(=N)NC(=N)Nc1ccc(Cl)cc1)NC(=N)Nc1ccc(Cl)cc1 [Chlorohexidin, reference compound]
[3]; 500 μg/mL
  width of the inhibition zone: 5 mm
[4]; 500 μg/mL
  width of the inhibition zone: 4 mm
Micrococcus luteus B-109; 500 μg/mL
  width of the inhibition zone: 5 mm
[5]; 500 μg/mL
  width of the inhibition zone: 4 mm
[6]; 500 μg/mL
  width of the inhibition zone: 5 mm

## N#Cc1c[nH]cc1-c1cccc2c1OC(F)(F)O2 [Fludioxonil, reference compound]
[7]; age of the fungus 3 days
  Inhibition value, I (%): 46%
[7]; age of the fungus 5 days
  Inhibition value, I (%): 38%
[7]; age of the fungus 7 days
  Inhibition value, I (%): 18%
[7]; age of the fungus 9 days
  Inhibition value, I (%): 12%
[7]; age of the fungus 12 days
  Inhibition value, I (%): 9%
[7]; Phytophthora cactorum, 168 h, read-out: EC50, μg/mL at day 7
  EC50: 27.8 µg/mL (≈ 112 µM)
[8]; age of the fungus 3 days
  Inhibition value, I (%): 38%
[8]; age of the fungus 5 days
  Inhibition value, I (%): 23%
[8]; age of the fungus 7 days
  Inhibition value, I (%): 6%
[8]; age of the fungus 9 days
  Inhibition value, I (%): 4%
[8]; Fusarium oxysporum, IBPPM543, 168 h, read-out: EC50, μg/mL at day 7
  EC50: 83.3 µg/mL (≈ 336 µM)

## CCn1cc(C(=O)O)c(=O)c2cc(F)c(N3CCNCC3)cc21 [Norfloxacin, reference compound]
[3]; Pectobacterium carotovorum, 500 μg/mL, read-out: width of the inhibition zone
  zone of inhibition at 500 µg/mL: 8 mm
[4]; Pectobacterium atrosepticum, 1043, 500 μg/mL, read-out: width of the inhibition zone
  zone of inhibition at 500 µg/mL: 7 mm
[9]
  MIC: 30 ± 2.6 µM (≈ 9.58 µg/mL)
[10]
  MIC: 7.5 ± 0.5 µM (≈ 2.4 µg/mL)
[10]; read-out: MBC (converted)
  MBC: 7.5 ± 0.6 µM (≈ 2.4 µg/mL)
[11]
  MBC: 24.4 ± 2.1 µM (≈ 7.79 µg/mL)
[11]; read-out: MIC
  MIC: 24.4 ± 2.1 µM (≈ 7.79 µg/mL)
Micrococcus luteus B-109; Micrococcus luteus, B109, 500 μg/mL, read-out: width of the inhibition zone
  zone of inhibition at 500 µg/mL: 7 mm
[5]; Pseudomonas fluorescens, EL2.1, 500 μg/mL, read-out: width of the inhibition zone
  zone of inhibition at 500 µg/mL: 8 mm
[6]; Xanthomonas campestris, B610, read-out: width of the inhibition zone
  zone of inhibition at 500 µg/mL: 7 mm
[12]
  MIC: 391 ± 30 µM (≈ 125 µg/mL)
[13]
  MBC: 7.5 ± 0.6 µM (≈ 2.4 µg/mL)
  MIC: 7.5 ± 0.5 µM (≈ 2.4 µg/mL)

## [Na+].[O-]Cl [sodium hypochlorite, reference compound]
[3]; 1000 μg/mL
  width of the inhibition zone: 3 mm
[4]; 1000 μg/mL
  width of the inhibition zone: 4 mm
Micrococcus luteus B-109; 1000 μg/mL
  width of the inhibition zone: 2.5 mm
[5]; 1000 μg/mL
  width of the inhibition zone: 4 mm
[6]; 1000 μg/mL
  width of the inhibition zone: 4 mm

## Heparin sodium [reference compound]
[14]
  APTT, % of control: +20.3 (19.7-21.4) ^** % of control
